Tests used:
[1] = tested on: isotype-specific anti-ovalbumin antibody; assay: Isotype-specific anti-ovalbumin antibody after a single dose of MEB, primary and secondary response; type: in vivo, C57BL/10 mice
Description: C57BL/10 mice are injected ip with ovalbumin/CFA on day 0, followed by a single ip injection of saline or MEB (0.15 mmol) on Days 2 or 3. The mice are reimmunized with ovalbumin sc on Day 10. Isotype-specific anti-ovalbumin antibody generated during the primary immune response (FIG. 4A), and the secondary immune response (FIG. 4B) are measured in the serum at day 10 and day 16, respectively. (FIG. 4C). […] This experiment was repeated, and the proliferation data represents the means of the two experiments.
The butyrate derivatives are tested for their ability to suppress lymphocyte activity in vivo. C57BL/10 mice (5 mice/group) are injected ip with 100 μg of ovalbumin in conjunction with complete Freund's adjuvant on Day 0. In one experiment, the mice also receive one ip injection per day of the butyrate derivatives (0.091 mmol) on Days 1–3. Serum samples are obtained 10 days after the initial injection with ovalbumin, and tested for the presence of anti-ovalbumin antibodies using an ELISA. To perform the ELISA 96 well plates (Costar 3595) are first incubated with ovalbumin (100 μl/well of 100 μg/ml in PBS) overnight at 4° C. The plates are then washed 4 times with PBS and 0.5% Tween 20, blocked with 1% fetal calf serum for 30 minutes at 37° C., and washed again. Individual serum samples are added (diluted 1/100 or 1/1000 in PBS), and the plates are incubated for 2 hours at 20° C. The plates were next washed 7 times with PBS/Tween, and alkaline phosphate (AP)-labeled goat anti-mouse IgG, IgA, IgM (H+L) (Zymed) is added ( 1/1000) for 1 hour at 20° C. The plates are again washed 7 times with PBS/Tween, alkaline phosphate substrate (1 mg/ml) is added. After 10 minutes, Ig levels are quantified by an ELISA reader (absorbance 405 nm). The concentration of anti-ovalbumin is determined by comparison with a standard curve obtained using mouse anti-ovalbumin antibody (Sigma; St. Louis, Mo.). To measure isotype-specific anti-ovalbumin antibodies, serum samples (diluted at 1/300 or 1/1000) are incubated on the ovalbumin-coated plates as described above. After washing, biotinylated detecting antibodies directed against mouse IgG2a (rat IgG1, clone R19–15), IgG2b (rat IgG2a, clone R12–3) IgG1 (rat IgG1, clone A85–1), or IgM (rat IgG2a, clone R6–60.2) (all purchased from PharMingen, La Jolla, Calif.) are added at 2.5 μg/ml for one hour at 20° C. followed by AP-labeled ExtrAvidin (Sigma) for one hour at 20° C. and AP substrate. Ig levels are presented as OD measurements. […]

[2] = tested on: spleen cells from DBA/2 mice; assay: Mixed lymphocyte response (MLR), alloantigen-specific T cell unresponsiveness; type: cell-based
Description: (FIG. 6A) Spleen cells from DBA/2 mice (H-2^d) were stimulated in a primary mixed lymphocyte response (MLR) with irradiated spleen cells or from C57BL/10 mice (H-2^b) in the presence (∘) or absence (●) of MEB (1 mM). As a negative control some wells are stimulated with spleen cells from DBA/2 mice (▾). Proliferation is measured on day 5. (FIG. 6B) After 3 days, some wells in the primary MLR cultures are washed, and rested for a further 2 days. The spleen cells that were stimulated in the primary MLR with spleen cells from C57BL/10 mice in the presence (∘) or absence (●) of MEB are then isolated and reincubated with either the original alloantigen (spleen cells from C57BL/10 mice), with a third-party alloantigen [spleen cells from C3H/HeJ mice (H-2k)], or with IL-2 (Con A CM).
The ability of MEB to induce alloantigen-specific T cell unresponsiveness is shown by incubating spleen cells from DBA/2 mice (H-2^d) (2.5×10^5 in 200 μl /wells) with stimulator cells [2.5×10^5 irradiated (2000R) spleen cells from C57BL/10 mice (H-2^b)]. MEB (1 mM) is added to some wells of the mixed lymphocyte reaction (MLR) 24 hours after the initiation of culture. After an additional 3 days, the MLR cultures are washed, and rested for a further 2 days. The T cells from the MLR are then isolated and reincubated at 2.5×10^5/well with either the initial alloantigen (spleen cells from C57BL/10 mice), or with a third-party alloantigen [spleen cells from C3H/HeJ mice (H-2^k)]. Proliferation in both the primary and secondary MLR is measured on day 5 by assessing incorporation of [^3H]-TdR after a 12 hour pulse.

[3] = tested on: KLH-specific Th1 cells (clone D3); assay: IL-2-induced proliferation of Th1 cells in the presence of butyrate derivatives; type: cell-based, C57BL/10 mice
Description: KLH-specific Th1 cells (clone D3) are stimulated with IL-2 (10% Con A CM) in the presence of different concentrations of n-butyrate or butyrate derivatives. In FIG. 2A Th1 cell proliferation is measured after 2 days. In FIG. 2B, the inhibitors are washed out after 24 hours, and the Th1 cells reincubated with fresh IL-2-containing medium. Proliferation of the Th1 cells restimulated with IL-2 in the absence of the inhibitors is measured after an additional 2 days. This experiment was repeated three times, and the proliferation data represents the means of the […] experiments.
The KLH-specific were developed in C57BL/10 mice, and characterized as Th1 clones based on their ability to secrete IL-2, but not IL-4. The Th1 clones were passed every 7–14 days using KLH, irradiated syngeneic spleen cells as antigen-presenting cells (APC), and IL-2-containing Con A CM using a previously described protocol (Gilbert et al., 1990).
To test the ability of the butyrate derivatives to suppress T cell activity […], Th1 cells [(5×10^4 cells/well in 96 well plates (Costar)] are stimulated with 10% IL-2-containing Con A CM in the presence of various concentrations of different butyrate derivatives. In some cultures, Th1 cell proliferation is measured after two days. In other cultures, the Th1 cells are washed after 24 hours, and fresh IL-2-containing medium is added. Proliferation is measured in the washed, IL-2-restimulated cultures after an additional 2 days.

[4] = single ip dose 0.15 mmol on Day 2 or 3, serum day 10
[5] = single ip dose 0.15 mmol on day 2, serum day 10
[6] = single ip dose 0.15 mmol on day 2 or day 3, reimmunized Day 10, serum day 16
[7] = single ip dose 0.15 mmol, reimmunized Day 10, serum day 16

`CCCC(=O)OCCN1CCOCC1.Cl` [MEB, 2-(4-Morpholinyl)ethyl butyrate hydrochloride] was tested, and the “IgG2a anti-ovalbumin antibody, primary response” value [1, 4] was “significantly decreased”, the “IgG2b anti-ovalbumin antibody, primary response” value [1, 4] was “significantly decreased” and the “IgG, anti-ovalbumin antibody, primary response” value [1, 5] was “decreased, albeit not dramatically”. The “IgM anti-ovalbumin antibody, primary response” value [1, 5] was “decreased, albeit not dramatically”, the “Decrease of IgG2a anti-ovalbumin antibody, secondary response, compared to controls” value [1, 6] was 80% and the “Decrease of IgG2b anti-ovalbumin antibody, secondary response, compared to controls” value [1, 6] was 80%. For the same compound, the “IgG1 anti-ovalbumin production, secondary response” value [1, 7] was “significantly decreased”, the “IgM anti-ovalbumin production, secondary response” value [1, 7] was “unaffected” and the “Proliferation in secondary MLR, third-party alloantigen” value ([2]; MEB 1 mM in primary MLR, restimulated with C3H/HeJ spleen cells) was “able to proliferate”. The “Proliferation in secondary MLR, initial alloantigen” value ([2]; MEB 1 mM in primary MLR, restimulated with C57BL/10 spleen cells without MEB) was “lose their ability to proliferate”, the “Proliferation in secondary culture, exogenous IL-2” value ([2]; MEB 1 mM in primary MLR, restimulated with IL-2) was “able to proliferate” and the “Spleen cell proliferation in primary one-way MLR” value ([2]; MEB 1 mM, day 5) was “blocked spleen cell proliferation”. The “Suppression of IL-2-induced proliferation of Th1 cells” value ([3]; 10% Con A CM, various concentrations, proliferation after 2 days) was “comparable to n-butyrate” and the “Proliferation to IL-2 after compounds are washed out” value ([3]; washed after 24 hours, fresh IL-2 medium, additional 2 days) was “regained their ability to proliferate to IL-2”.
